For 1 molecule, Kb results are on record in patent US4352809A, “Method of producing alpha2 antagonism” (Smithkline Corporation, priority 1981, dated 1982).

For this assay, the target named is T1, alpha2 -adrenoceptor (Cavia porcellus, UniProt Q60474).
T1 construct: The left atrium is removed, dissected free of extraneous tissue and mounted in a 2 ml. superfusion chamber; from tissue; host or cells: isolated left atrium of male guinea pig (prejunctional receptors on sympathetic nerve terminals)
T1 sequence (Q60474 1-464): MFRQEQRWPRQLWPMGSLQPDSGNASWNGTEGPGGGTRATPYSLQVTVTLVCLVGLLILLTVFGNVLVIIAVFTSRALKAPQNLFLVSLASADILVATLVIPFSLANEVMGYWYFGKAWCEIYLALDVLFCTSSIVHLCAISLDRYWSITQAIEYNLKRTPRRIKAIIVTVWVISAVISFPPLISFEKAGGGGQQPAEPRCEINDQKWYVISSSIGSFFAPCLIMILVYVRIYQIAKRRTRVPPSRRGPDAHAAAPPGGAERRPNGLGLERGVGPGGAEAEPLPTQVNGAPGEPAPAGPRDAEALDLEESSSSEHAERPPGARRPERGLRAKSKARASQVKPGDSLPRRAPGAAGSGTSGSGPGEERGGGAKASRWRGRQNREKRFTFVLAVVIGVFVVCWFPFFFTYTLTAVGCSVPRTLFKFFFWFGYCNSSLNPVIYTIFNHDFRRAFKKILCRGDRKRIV
Put plainly: prejunctional alpha2-antagonist activity, isolated superfused guinea pig left atrium (shift of the clonidine concentration-response curve). It counts as cell-based. To be noted: isolated perfused guinea pig left atrium; antagonist concentration that shifts the clonidine log concentration-response curve to the right by a factor of 2; read-out: KB (receptor dissociation constant of the antagonist). As for the experimental part: Briefly, the heart is removed from a pentobarbitol-anesthetized male guinea pig. The left atrium is removed, dissected free of extraneous tissue and mounted in a 2 ml. superfusion chamber. The tissue is paced at 60 pulse/minute and the sympathetic nerves excited at 6 minute intervals by field stimulation. The response to nerve stimulation is measured as the difference in contractile force between the basal contraction and peak contraction following a nerve stimulation. A concentration-response curve for clonidine (alpha2 -agonist) is prepared by administering increasing concentration of clonidine following each successive stimulation. The tissue is then superfused with the alpha2 -antagonist to be tested for thirty minutes and the clonidine concentration-effect curve was repeated in the presence of antagonist. The receptor dissociation constant of the antagonist (KB) is defined as the antagonist concentration required to shift the log concentration-response curve of the agonist to the right by a factor of 2.

For orientation: Kb means the affinity of an antagonist, worked out from how it opposes an agonist.

Where a name gives a salt, the structure may show the parent alone.

For the molecule `c1cc2snnc2c2c1CCNC2` [[1,2,3]thiadiazolo[5,4-h]-6,7,8,9-tetrahydroisoquinoline hydrochloride], the Kb came out at 220 nM.
